Test results published in ChEMBL document CHEMBL4507319 (2021).

Key:
[1] = molecular target: Protein kinase C eta type (Homo sapiens) (UniProt P24723); settings: Compound concentration 1000.0 nM
[2] = test system: Epidermal growth factor receptor (Homo sapiens), P00533 [L858R,T790M]; settings: Compound concentration 1000.0 nM
[3] = molecular target: Ephrin type-B receptor 6 (Homo sapiens) (UniProt O15197); settings: Compound concentration 1000.0 nM
[4] = molecular target: T1, Serine/threonine-protein kinase Nek2 (Homo sapiens) (UniProt P51955); settings: Compound concentration 1000.0 nM
T1 sequence (whole entry): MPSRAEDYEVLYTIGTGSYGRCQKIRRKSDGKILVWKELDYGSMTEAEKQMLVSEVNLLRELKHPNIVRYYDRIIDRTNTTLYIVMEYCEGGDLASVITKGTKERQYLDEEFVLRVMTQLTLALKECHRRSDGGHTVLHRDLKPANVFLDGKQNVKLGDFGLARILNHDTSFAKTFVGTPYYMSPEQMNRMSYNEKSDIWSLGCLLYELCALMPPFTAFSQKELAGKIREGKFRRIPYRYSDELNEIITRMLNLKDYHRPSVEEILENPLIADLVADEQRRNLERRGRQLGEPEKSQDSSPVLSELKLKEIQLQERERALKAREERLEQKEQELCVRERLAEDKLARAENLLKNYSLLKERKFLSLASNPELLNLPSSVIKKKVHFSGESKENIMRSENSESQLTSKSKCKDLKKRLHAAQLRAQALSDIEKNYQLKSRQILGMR

[5] = molecular target: Bone morphogenetic protein receptor type-1B (Homo sapiens) (UniProt O00238); settings: Compound concentration 1000.0 nM
[6] = molecular target: Angiopoietin-1 receptor (Homo sapiens) (UniProt Q02763); settings: Compound concentration 1000.0 nM
[7] = molecular target: Serine/threonine-protein kinase PAK 1 (Homo sapiens) (UniProt Q13153); settings: Compound concentration 1000.0 nM
Chain of Serine/threonine-protein kinase PAK 1 (Homo sapiens) (Q13153 whole entry): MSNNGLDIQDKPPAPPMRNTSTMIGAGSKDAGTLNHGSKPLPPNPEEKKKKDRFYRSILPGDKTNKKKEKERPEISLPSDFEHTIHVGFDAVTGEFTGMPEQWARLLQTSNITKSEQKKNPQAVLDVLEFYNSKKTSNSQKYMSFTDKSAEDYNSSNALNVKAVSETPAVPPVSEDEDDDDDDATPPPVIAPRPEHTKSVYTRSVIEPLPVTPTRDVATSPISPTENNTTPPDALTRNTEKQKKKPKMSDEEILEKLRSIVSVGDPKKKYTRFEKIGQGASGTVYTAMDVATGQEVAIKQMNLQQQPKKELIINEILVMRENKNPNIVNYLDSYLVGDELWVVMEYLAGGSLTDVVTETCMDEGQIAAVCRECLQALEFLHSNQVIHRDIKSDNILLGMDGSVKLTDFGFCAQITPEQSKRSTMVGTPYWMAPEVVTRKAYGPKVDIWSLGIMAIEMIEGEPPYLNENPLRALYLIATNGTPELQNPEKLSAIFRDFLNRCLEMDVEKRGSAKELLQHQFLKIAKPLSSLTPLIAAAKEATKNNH

[8] = molecular target: Sigma non-opioid intracellular receptor 1 (Homo sapiens) (UniProt Q99720); settings: Compound concentration 10.0 uM
[9] = molecular target: Tyrosine-protein kinase ABL1 (Homo sapiens) (UniProt P00519); settings: Compound concentration 1000.0 nM
[10] = molecular target: Dual specificity tyrosine-phosphorylation-regulated kinase 1A (Homo sapiens) (UniProt Q13627); settings: Compound concentration 1000.0 nM
[11] = molecular target: RAC-alpha serine/threonine-protein kinase (Homo sapiens) (UniProt P31749); settings: Compound concentration 1000.0 nM
[12] = molecular target: T2, Dual specificity protein kinase TTK (Homo sapiens) (UniProt P33981); settings: Compound concentration 1000.0 nM
T2 sequence (whole entry): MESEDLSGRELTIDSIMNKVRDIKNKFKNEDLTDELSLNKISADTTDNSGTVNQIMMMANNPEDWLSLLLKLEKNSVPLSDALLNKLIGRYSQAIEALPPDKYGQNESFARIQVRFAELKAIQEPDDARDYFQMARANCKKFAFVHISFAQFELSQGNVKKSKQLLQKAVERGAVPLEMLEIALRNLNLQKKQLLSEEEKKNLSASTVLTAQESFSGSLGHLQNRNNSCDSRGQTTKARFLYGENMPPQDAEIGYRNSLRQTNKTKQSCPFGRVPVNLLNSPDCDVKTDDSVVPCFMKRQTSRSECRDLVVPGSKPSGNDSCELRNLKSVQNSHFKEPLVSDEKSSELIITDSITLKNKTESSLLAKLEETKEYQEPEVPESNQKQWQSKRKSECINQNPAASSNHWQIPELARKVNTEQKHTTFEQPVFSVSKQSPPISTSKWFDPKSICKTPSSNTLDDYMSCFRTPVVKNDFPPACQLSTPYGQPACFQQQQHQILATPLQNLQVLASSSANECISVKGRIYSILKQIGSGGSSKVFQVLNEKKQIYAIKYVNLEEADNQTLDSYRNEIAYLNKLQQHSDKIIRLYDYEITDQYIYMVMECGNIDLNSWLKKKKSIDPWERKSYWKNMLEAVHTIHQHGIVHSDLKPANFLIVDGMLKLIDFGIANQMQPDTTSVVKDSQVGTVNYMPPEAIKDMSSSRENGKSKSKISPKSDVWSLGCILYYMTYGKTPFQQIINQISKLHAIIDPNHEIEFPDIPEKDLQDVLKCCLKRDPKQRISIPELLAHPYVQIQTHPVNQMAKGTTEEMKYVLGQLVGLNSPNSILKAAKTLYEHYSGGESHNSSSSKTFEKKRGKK

[13] = molecular target: Proto-oncogene tyrosine-protein kinase ROS (Homo sapiens) (UniProt P08922); settings: Compound concentration 1000.0 nM
Chain of Proto-oncogene tyrosine-protein kinase ROS (Homo sapiens) (P08922 whole entry): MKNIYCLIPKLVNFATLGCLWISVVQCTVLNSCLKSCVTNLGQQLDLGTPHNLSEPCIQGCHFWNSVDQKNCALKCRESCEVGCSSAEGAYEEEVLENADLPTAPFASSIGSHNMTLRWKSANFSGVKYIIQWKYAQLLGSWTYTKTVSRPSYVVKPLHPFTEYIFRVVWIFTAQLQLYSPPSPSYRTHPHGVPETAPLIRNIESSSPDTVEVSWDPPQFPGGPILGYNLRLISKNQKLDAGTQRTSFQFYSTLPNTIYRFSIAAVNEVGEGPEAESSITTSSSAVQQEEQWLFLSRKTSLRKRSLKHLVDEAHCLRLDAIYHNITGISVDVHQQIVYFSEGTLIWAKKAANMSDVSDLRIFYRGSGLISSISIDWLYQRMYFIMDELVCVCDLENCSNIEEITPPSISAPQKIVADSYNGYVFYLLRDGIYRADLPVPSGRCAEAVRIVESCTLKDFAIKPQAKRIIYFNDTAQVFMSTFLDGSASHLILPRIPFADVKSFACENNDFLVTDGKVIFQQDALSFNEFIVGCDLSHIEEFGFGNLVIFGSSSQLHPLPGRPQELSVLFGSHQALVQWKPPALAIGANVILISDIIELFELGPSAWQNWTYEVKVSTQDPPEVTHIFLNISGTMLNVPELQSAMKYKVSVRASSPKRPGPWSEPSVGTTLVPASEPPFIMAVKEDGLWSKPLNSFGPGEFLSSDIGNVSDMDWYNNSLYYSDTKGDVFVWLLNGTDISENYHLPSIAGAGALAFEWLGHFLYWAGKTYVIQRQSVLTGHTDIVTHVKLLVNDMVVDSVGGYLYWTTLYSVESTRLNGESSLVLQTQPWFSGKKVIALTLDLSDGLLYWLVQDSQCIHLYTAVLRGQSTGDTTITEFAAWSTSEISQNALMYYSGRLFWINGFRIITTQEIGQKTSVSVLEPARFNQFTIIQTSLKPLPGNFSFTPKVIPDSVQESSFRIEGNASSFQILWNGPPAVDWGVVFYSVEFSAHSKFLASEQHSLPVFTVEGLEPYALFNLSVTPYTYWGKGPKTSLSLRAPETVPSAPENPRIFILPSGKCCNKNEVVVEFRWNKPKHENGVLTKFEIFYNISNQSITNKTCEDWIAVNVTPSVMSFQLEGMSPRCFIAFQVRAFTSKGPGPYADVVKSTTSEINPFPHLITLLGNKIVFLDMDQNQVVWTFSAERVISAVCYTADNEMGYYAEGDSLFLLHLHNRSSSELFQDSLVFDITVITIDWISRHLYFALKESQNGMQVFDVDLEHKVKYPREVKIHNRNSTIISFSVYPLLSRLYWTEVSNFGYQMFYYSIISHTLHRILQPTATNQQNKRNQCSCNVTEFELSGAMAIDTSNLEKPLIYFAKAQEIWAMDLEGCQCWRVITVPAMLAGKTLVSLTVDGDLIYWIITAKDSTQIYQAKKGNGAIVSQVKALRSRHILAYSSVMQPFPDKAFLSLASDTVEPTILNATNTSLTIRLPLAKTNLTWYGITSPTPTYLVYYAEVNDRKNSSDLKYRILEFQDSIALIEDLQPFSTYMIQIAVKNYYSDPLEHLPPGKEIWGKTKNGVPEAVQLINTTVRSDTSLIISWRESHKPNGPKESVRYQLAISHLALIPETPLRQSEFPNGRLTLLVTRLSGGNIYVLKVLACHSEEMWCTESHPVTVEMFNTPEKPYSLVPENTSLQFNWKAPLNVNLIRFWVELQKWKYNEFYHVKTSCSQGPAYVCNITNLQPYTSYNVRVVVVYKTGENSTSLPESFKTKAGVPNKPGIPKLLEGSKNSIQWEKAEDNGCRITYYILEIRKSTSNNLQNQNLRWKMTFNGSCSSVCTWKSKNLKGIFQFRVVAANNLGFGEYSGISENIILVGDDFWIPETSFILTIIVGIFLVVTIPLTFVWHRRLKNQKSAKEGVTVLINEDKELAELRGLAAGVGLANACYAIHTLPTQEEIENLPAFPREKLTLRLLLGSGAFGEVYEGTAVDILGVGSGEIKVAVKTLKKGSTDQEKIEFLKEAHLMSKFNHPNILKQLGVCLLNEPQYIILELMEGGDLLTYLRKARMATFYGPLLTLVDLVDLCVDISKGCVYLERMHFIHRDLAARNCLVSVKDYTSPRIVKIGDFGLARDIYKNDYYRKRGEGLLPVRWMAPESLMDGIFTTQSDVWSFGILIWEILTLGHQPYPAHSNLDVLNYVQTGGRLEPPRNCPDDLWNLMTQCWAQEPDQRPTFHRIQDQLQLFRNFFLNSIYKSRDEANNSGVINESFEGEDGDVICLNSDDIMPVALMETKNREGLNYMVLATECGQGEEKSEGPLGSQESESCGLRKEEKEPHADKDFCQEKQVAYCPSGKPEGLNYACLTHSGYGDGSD

[14] = molecular target: Serine/threonine-protein kinase PLK1 (Homo sapiens) (UniProt P53350); settings: Compound concentration 1000.0 nM
[15] = molecular target: Phosphorylase b kinase regulatory subunit alpha, liver isoform (Homo sapiens) (UniProt P46019); settings: Compound concentration 1000.0 nM
Chain of Phosphorylase b kinase regulatory subunit alpha, liver isoform (Homo sapiens) (P46019 whole entry, canonical isoform): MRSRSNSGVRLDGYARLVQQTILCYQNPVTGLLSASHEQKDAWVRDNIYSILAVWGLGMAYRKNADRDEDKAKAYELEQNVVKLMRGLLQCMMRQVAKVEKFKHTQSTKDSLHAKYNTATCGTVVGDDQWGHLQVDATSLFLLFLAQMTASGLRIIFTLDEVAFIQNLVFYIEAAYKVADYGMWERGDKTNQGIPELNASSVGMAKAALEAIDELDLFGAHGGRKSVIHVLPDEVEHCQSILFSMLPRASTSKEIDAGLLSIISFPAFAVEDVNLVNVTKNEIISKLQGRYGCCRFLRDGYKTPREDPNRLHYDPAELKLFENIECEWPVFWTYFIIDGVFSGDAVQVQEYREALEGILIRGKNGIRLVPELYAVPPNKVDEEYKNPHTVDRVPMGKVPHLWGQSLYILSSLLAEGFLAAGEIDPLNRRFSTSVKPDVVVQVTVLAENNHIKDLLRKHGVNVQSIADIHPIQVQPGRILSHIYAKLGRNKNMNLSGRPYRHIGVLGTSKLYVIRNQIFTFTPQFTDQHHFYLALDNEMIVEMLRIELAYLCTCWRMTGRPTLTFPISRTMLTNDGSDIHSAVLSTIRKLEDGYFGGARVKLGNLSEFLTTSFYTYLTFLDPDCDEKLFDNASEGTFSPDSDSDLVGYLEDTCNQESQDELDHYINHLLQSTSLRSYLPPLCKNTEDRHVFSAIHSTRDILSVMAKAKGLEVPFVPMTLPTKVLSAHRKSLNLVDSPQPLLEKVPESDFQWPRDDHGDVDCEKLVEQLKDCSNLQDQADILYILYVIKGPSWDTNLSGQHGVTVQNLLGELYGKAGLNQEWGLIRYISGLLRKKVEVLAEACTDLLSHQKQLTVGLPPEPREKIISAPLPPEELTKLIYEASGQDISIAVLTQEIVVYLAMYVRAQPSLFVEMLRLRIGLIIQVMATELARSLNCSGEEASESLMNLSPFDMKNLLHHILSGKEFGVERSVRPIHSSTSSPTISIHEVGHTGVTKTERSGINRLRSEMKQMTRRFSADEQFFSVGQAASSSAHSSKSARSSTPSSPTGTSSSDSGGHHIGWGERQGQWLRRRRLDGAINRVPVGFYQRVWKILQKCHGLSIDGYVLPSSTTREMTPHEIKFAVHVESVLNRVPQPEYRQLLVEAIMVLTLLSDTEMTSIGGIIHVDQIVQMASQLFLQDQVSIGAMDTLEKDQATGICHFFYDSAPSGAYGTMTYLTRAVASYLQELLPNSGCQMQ

Chain of Ephrin type-B receptor 6 (Homo sapiens) (O15197 whole entry): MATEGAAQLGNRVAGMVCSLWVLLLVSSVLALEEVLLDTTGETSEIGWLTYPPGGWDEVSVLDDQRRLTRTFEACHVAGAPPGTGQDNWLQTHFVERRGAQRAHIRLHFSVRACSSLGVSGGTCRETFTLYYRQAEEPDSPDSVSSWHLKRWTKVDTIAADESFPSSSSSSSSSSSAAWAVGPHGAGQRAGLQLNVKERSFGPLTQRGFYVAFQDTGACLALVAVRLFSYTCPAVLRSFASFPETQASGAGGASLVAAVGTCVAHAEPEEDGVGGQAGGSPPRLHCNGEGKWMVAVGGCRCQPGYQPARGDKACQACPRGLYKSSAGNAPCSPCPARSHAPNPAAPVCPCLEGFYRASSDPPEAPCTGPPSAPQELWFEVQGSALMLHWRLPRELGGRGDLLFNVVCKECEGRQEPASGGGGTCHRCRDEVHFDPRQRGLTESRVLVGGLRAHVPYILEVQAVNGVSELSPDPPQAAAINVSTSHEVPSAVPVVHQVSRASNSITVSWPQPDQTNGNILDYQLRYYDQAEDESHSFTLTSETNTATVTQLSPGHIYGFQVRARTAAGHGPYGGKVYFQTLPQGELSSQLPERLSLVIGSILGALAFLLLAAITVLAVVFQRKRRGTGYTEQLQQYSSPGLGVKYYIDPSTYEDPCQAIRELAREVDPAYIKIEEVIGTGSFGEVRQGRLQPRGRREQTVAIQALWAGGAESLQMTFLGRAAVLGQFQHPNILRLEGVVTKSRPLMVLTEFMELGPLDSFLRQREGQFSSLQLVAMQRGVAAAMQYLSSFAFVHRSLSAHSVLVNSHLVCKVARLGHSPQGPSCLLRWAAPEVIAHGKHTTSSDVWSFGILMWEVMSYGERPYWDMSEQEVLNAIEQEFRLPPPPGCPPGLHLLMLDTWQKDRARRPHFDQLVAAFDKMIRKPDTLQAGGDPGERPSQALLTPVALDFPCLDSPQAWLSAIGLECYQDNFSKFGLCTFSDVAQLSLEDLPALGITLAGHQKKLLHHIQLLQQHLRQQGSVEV

`CCc1ccccc1C(=O)Nc1n[nH]c2c(C)c(F)c(C3C(C#N)=C(C)N(C)C(C)=C3C#N)cc12` [BAY-3827] was tested, and the residual activity [1] was 32%, the residual activity [2] was 97% and the residual activity [3] was 100%. For the same molecule, the residual activity [4] was 87%, the residual activity [5] was 96% and the residual activity [6] was 91%. It also gave a residual activity [7] of 82%, an inhibition [8] of 30.5% and a residual activity [9] of 78%. The residual activity [10] was 100%, the residual activity [11] was 75% and the residual activity [12] was 82%. The residual activity [13] was 98%, the residual activity [14] was 100% and the residual activity [15] was 81%.
With `CC1=C(C#N)C(c2ccc3c(c2)c(NC(=O)c2ccccc2C)nn3C)C(C#N)=C(C)N1` [BAY-974] the residual activity [1] was 94%, the residual activity [2] was 93% and the residual activity [3] was 81%. The residual activity [4] was 100%, the residual activity [5] was 91% and the residual activity [6] was 98%. It also gave a residual activity [7] of 100%, an inhibition [8] of 37.9% and a residual activity [9] of 86%. It also gave a residual activity [10] of 97%, a residual activity [11] of 94% and a residual activity [12] of 82%. The residual activity [13] was 100%, the residual activity [14] was 85% and the residual activity [15] was 89%.
